According to patent publication US20240398831A1, “COMPOSITIONS COMPRISING SMALL MOLECULE REGULATORS OF TUMOR IMMUNITY AND METHODS OF USING SAME” (Duke University, priority 2021, published 2024):

What was measured:
B16F10 tumors = assay: B16F10 tumor growth in ovariectomized NSG mice; format: in vivo, mouse
Protocol: Tumor formation in these mice were induced with a single intradermal dose of 150 μg of 4-hydroxytamoxifen (4OHT). […] FIGS. 6A-6B and FIGS. 6E-6F are representative of two independent experiments. Data are expressed as mean t S.E.M. Significance was calculated using the Student's t test (FIG. 6C and FIG. 6H), log-rank test (FIG. 6D and FIG. 6G), and two-way ANOVA followed by Bonferroni's multiple correction (FIGS. 6A-6B, FIGS. 6E-6F, and FIG. 6I) (*p<0.05, *p<0.01, and ***<0.001).
Mice. C57BL/BJ, LysMCre (B6.129P2-Lyz2^tm1(cre)lfo/J) Pmel (B6.Cg-Thy1^a/Cy Tg(TcraTcrb)8Rest/J) mice were from Jackson Laboratories (Bar Harbor, ME). Age matched mice were used for all the studies. LysMCre mice were bred to Esr1^f/f mice to generate Esr1^f/f; LysMCre and littermate control LysMCre and Esr1^f/f mice. iBP (Braf^V600E/WT, Pten^f/fmTyrCreERT2) mice were generated by crossing breeders Braf^WT/WT/Pten^f/f, mTyrCreERT2 mice to BRAF^V600E, Pten^f/f mice. The mice were housed in secure animal facility cages in 12 hour light:dark cycles at temperature around 25° C. and 70% humidity. […]
Tumor models and cells. […] Tumors were measured thrice weekly using an electronic caliper. Tumor volumes were calculated by the formula V=L×(W×W)/2. For iBP mouse tumors, volumes were calculated by the formula V=L×B×H. For tumor growth rate studies mice were euthanized when the tumors reached a maximum size of 2000 mm^3.

YuMM5.2 cells = assay: Quantitative PCR of ER target genes in melanoma cells; format: cell-based, mouse; settings: E2 1 nM, 16 hr
CD3+ T cells = assay: T cells co-cultured with tumor infiltrating CD11b+ myeloid cells from iBP tumors; format: cell-based, mouse; settings: myeloid cells from E2 vs placebo treated mice, 72 hr
Protocol: T cell proliferation assay and staining. CD3+ T cells were isolated from the spleens of C57BL/6J or P-mel mice with magnetic bead-based T cell isolation kit (Cat #19851, StemCell Technologies). T cells from naïve mice were stained with 5 μM CFSE (Cat #C34554, ThermoFisher Scientific) for 5 minutes in PBS+5% CFS with rapid vortexing following which the cells were washed twice with PBS. Stained T cells were then counted and plated in 96-well plates coated with anti-CD3 antibody (0.5 μg/mL, Cat #19851, ThermoFisher Scientific) anti-CD28 antibody (1 μg/mL, Cat #16-0281-86, Thermo Fisher Scientific) at desired density (250,000 T cells/50,000 CD11b or BMDM) in the presence of IL2 (50 ng/mL) (Cat #212-12, PeproTech). 72 hr after plating the cells were incubated with protein transport inhibitors brefeldin (Cat #00-4506-51, Thermo Fisher Scientific) and monensin (Cat #00-4505-51, Thermo Fisher Scientific) for 6 hr at a final concentration of 2 μM monensin and 3 μg/mL brefeldin after which they were collected and were processed for staining for flow cytometry.
These cells were then co-incubated with CD3^+ T cells isolated from the spleens of non-tumor bearing Pmel mice (Thy1^a/Cy Tg(TcraTcrb)8Rest/J) for 72 hr. iBP tumors express gp100 (Pmel) that can be processed and presented by professional antigen presenting cells to T cells that are specific to the antigen (gp100). Prior to coincubation, T cells were stained with the Carboxyfluorescein succinimidyl ester (CFSE) dye and activated in the presence of sub-optimal CD3/CD28. […] In this experiment, the phenotypic characteristics of the isolated myeloid cells were not defined, i.e., bone marrow derived vs resident macrophages.

17β-estradiol [E2]
slower tumor growth kinetics imparted by ovariectomy (placebo vs E2) (B16F10 tumors): disappeared | expression of classical ER target genes (Pgr and Cxc112) (YuMM5.2 cells): did not lead to changes | T cell (both CD4+ and CD8+) proliferation, CFSE dye dilution (CD3+ T cells): significantly inhibited | expression of IFNγ in CD8+ and CD4+ T cells (CD3+ T cells): decreased expression | expression of granzyme B (GZMB) in CD8+ and CD4+ T cells (CD3+ T cells): decreased expression
